Test results published in article PMC9248268 (Biochemical pharmacology, 2021).
pEC50: −log10 of the molar value.

Key:
[1] = target: T1, recombinant human PTPRD phosphatase (Homo sapiens, UniProt P23468); assay: inhibition of pNPP hydrolysis by recombinant PTPRD phosphatase
T1 sequence (P23468 1357-1612 limits assumed): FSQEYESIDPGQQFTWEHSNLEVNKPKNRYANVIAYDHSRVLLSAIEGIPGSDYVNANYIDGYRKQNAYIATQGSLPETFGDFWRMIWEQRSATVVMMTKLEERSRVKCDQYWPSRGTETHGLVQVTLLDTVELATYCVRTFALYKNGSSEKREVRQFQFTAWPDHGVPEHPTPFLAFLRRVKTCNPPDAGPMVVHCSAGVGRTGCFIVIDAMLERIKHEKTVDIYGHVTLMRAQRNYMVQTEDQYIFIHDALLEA

PTPRJ phosphatase = target: T2, PTPRJ phosphatase (Homo sapiens, UniProt Q12913); assay: inhibition of pNPP hydrolysis by recombinant PTPRJ phosphatase; type: biochemical
T2 sequence (Q12913 997-1337 limits assumed): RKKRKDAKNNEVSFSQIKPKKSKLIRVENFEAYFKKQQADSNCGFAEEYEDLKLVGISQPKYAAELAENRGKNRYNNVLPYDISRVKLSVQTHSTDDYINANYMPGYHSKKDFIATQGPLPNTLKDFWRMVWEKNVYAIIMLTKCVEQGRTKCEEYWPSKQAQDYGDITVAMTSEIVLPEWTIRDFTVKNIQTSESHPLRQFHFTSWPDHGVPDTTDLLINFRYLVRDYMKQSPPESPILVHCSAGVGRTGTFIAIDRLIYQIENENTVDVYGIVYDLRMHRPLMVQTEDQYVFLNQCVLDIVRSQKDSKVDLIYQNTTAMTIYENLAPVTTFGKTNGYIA

[2] = target: T1, recombinant human PTPRD phosphatase; conditions: cited from earlier work
PTPRS phosphatase [3] = target: T3, PTPRS phosphatase (Homo sapiens, UniProt Q13332); conditions: cited from earlier work
T3 sequence (Q13332 1393-1648 limits assumed): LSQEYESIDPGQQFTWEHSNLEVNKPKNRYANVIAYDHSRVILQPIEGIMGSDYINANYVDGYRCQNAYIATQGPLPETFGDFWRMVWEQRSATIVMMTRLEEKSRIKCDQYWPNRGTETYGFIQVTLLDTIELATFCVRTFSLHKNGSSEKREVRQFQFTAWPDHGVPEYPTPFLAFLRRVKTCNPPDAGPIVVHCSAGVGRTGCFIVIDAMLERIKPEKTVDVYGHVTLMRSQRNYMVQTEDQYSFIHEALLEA

PTPRF phosphatase [4] = conditions: cited from earlier work
[5] = acute ascending doses or 2-week repeated doses up to 20 mg/kg; cited from earlier work
[6] = target: T4, PTPN1 (PTP1B) phosphatase (Homo sapiens, UniProt P18031); assay: inhibition of pNPP hydrolysis by recombinant PTPN1; type: biochemical
T4 sequence (P18031 1-435): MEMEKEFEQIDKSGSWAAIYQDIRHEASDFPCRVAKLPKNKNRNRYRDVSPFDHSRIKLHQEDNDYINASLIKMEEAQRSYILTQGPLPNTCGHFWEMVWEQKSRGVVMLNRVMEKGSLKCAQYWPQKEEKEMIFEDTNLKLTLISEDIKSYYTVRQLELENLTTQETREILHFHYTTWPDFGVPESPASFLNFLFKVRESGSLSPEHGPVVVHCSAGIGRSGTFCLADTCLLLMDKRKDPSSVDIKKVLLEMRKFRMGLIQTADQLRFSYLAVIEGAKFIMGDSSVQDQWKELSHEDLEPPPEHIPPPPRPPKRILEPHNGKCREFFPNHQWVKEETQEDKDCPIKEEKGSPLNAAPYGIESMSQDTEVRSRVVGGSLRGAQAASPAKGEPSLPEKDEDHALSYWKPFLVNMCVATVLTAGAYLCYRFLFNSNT

PTPRS phosphatase [7] = target: T3, PTPRS phosphatase; assay: inhibition of pNPP hydrolysis by recombinant PTPRS phosphatase; type: biochemical; conditions: relative to 7-BIA
PTPRF phosphatase [8] = assay: inhibition of pNPP hydrolysis by recombinant PTPRF phosphatase; type: biochemical; conditions: relative to 7-BIA
[9] = system: other protein tyrosine phosphatases screened; assay: screen at other protein tyrosine phosphatases; type: biochemical
[10] = system: sites of action (and side effects) of most marketed drugs; assay: EUROFINS assays for sites of action of marketed drugs; conditions: read-out: EC50 at EUROFINS sites of action of marketed drugs; any of these sites
[11] = absorption study, plasma levels in rats; type: in vivo; conditions: male, Sprague Dawley, rat, 10 mg/kg
[12] = oral tolerability study in mice; parameters: species or system wildtype C57BL/6J or PTPRD knockout mice; conditions: mouse, in vivo

COc1ccccc1COc1cc2c(c(C=O)c1OC)CC(O)OC2=O (centres unmarked) [compound 31]
activity at PTPRD (in words) [1]: no improvement in PTPRD activity

COc1cccc(COc2cc3c(c(C=O)c2OC)CC(O)OC3=O)c1 (centres unmarked) [compound 30, 3-Hydroxy-6-methoxy-7-((3-methoxybenzyl)oxy)-1-oxoisochromane-5-carbaldehyde]
activity at PTPRD (in words) [1]: no improvement in PTPRD activity

CCCCOc1cc2c(c(C=O)c1OC)CC(O)OC2=O (centres unmarked) [compound 1, 7-butoxy illudalic acid analog]
potency at PTPRJ (in words) (PTPRJ phosphatase): moderate potencies
activity at PTPRD phosphatase (in words) [2]: active
potency of inhibition of PTPRD phosphatase dephosphorylation of p-NPP (in words) [2]: good potency
activity at PTPRS phosphatase (in words) (PTPRS phosphatase [3]): active
activity at PTPRF phosphatase (in words) (PTPRF phosphatase [4]): active
toxicities in mice (in words) [5]: no apparent toxicities

COc1c(OCc2ccc(Oc3ccccc3)cc2)cc2c(c1C=O)CC(O)OC2=O (centres unmarked) [compound 40, 3-Hydroxy-6-methoxy-1-oxo-7-((4-phenoxybenzyl)oxy)isochromane-5-carbaldehyde]
potency in inhibiting PTPN1/PTP1B (in words) [6]: relatively high potency

COc1c(OCC2CCCC2)cc2c(c1C=O)CC(O)OC2=O (centres unmarked) [compound 58, 7-Cyclopentylmethoxy-3-hydroxy-6-methoxy-1-oxo-isochroman-5-carbaldehyde]
greater selectivity for PTPRD vs PTPRS than 7-BIA (PTPRS phosphatase [7]): 1.6 fold
greater selectivity for PTPRD vs PTPRF than 7-BIA (PTPRF phosphatase [8]): 1.4 fold
greater selectivity for PTPRD vs PTPRJ than 7-BIA (PTPRJ phosphatase; relative to 7-BIA): 3.5 fold
greater selectivity for PTPRD vs PTPN1/PTP1B than 7-BIA ([6]; relative to 7-BIA): 1.8 fold
potency at other protein tyrosine phosphatases screened (in words) [9]: no substantial potency
pEC50 [10]: ≤ 4.00
half-life [11]: ~50 min
concentration at 30 min ([11]; ip): 577 ng/g
concentration at 120 min ([11]; ip): 10.3 ng/g
concentration at 240 min ([11]; ip): 1.84 ng/g
concentration at 5 min ([11]; iv): 24600 ng/g
concentration at 30 min ([11]; iv): 92.6 ng/g
concentration at 240 min ([11]; iv): 1.03 ng/g
concentration at 30 min ([11]; po): 82.4 ng/g
concentration at 120 min ([11]; po): 24.2 ng/g
concentration at 240 min ([11]; po): 4.62 ng/g
weight lost ([12]; 200 mg/kg): 1.3 g
weight lost ([12]; 400 mg/kg): 3.4 g
weight lost ([12]; 600 mg/kg): 1.1 g
weight lost ([12]; 1000 mg/kg): 9 g

CCCCOc1cc2c(c(C=O)c1OCCCC)CC(O)OC2=O (centres unmarked) [compound 24]
activity at PTPRD (in words) [1]: activity was lost

CCCCOc1cc2c(=O)occc2c(C=O)c1OC [compound 22]
activity at PTPRD (in words) [1]: activity was lost

CCCCOc1cc2c(c(C=O)c1OCC)CC(O)OC2=O (centres unmarked) [compound 23]
activity at PTPRD (in words) [1]: activity was lost
